Data as given in ChEMBL document CHEMBL1201862, “PubChem BioAssay data set” (2004).
Calls of active or inactive are those of the source.

Legend:
[1] = target: Tyrosine-protein phosphatase non-receptor type 5 (Homo sapiens, UniProt P54829); assay: STEP phosphatase inhibitors, confirmation, biochemical, fluorescence intensity, uHTS hits (AID 602372); format: functional; settings: read-out: IC50_Mean
[2] = target: Dual specificity protein phosphatase 3 (Homo sapiens, UniProt P51452); assay: VHR phosphatase inhibition, dose response, selectivity assay for STEP inhibitor project, biochemical (AID 602374); format: functional; settings: read-out: IC50_Mean
Chain of Dual specificity protein phosphatase 3 (P51452 whole entry): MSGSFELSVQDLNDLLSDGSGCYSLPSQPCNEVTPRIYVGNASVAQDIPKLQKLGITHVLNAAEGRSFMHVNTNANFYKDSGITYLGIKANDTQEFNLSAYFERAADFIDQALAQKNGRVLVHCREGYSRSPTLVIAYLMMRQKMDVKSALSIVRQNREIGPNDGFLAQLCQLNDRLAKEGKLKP

[3] = target: Tyrosine-protein phosphatase non-receptor type 11 (Homo sapiens, UniProt Q06124); assay: SHP2 phosphatase inhibition, dose response, selectivity assay for STEP inhibitor project, biochemical (AID 602367); format: functional; settings: read-out: IC50_Mean
Chain of Tyrosine-protein phosphatase non-receptor type 11 (Q06124 whole entry, the tested form may be a part): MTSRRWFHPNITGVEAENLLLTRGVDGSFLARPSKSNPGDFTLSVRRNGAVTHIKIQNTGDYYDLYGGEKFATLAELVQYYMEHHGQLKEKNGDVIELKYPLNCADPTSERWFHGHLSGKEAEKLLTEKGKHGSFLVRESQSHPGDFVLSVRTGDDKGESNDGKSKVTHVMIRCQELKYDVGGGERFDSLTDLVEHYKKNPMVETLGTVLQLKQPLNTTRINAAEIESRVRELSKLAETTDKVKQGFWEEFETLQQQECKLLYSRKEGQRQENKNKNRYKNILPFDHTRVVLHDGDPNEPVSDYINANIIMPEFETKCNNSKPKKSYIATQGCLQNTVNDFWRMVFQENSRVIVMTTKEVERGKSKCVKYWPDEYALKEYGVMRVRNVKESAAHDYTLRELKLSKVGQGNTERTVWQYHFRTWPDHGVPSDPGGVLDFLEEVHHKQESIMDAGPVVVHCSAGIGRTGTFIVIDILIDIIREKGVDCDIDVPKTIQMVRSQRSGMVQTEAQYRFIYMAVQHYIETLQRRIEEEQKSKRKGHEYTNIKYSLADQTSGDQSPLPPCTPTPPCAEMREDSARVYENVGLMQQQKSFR

[4] = target: T1, Carboxy-terminal domain RNA polymerase II polypeptide A small phosphatase 1 (Homo sapiens, UniProt Q9GZU7); assay: inhibitors of CTDSP1, concentration-response testing, biochemical assay, absorbance-based, actives from ultra-high-throughput screening (AID 540297); format: functional
T1 sequence (Q9GZU7 whole entry): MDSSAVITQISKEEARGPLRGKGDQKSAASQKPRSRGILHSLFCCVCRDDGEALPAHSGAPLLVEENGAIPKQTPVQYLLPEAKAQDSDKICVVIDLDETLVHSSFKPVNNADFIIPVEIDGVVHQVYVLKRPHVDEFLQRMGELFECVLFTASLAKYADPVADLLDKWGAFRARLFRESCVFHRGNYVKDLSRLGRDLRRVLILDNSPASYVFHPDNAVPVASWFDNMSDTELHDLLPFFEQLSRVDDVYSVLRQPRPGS

[5] = target: T2, Tyrosine-protein phosphatase non-receptor type 22 (Homo sapiens, UniProt Q9Y2R2); assay: PTPN22 phosphatase inhibition, dose response, selectivity assay for STEP inhibitor project, biochemical (AID 624241); format: functional
T2 sequence (Q9Y2R2 whole entry): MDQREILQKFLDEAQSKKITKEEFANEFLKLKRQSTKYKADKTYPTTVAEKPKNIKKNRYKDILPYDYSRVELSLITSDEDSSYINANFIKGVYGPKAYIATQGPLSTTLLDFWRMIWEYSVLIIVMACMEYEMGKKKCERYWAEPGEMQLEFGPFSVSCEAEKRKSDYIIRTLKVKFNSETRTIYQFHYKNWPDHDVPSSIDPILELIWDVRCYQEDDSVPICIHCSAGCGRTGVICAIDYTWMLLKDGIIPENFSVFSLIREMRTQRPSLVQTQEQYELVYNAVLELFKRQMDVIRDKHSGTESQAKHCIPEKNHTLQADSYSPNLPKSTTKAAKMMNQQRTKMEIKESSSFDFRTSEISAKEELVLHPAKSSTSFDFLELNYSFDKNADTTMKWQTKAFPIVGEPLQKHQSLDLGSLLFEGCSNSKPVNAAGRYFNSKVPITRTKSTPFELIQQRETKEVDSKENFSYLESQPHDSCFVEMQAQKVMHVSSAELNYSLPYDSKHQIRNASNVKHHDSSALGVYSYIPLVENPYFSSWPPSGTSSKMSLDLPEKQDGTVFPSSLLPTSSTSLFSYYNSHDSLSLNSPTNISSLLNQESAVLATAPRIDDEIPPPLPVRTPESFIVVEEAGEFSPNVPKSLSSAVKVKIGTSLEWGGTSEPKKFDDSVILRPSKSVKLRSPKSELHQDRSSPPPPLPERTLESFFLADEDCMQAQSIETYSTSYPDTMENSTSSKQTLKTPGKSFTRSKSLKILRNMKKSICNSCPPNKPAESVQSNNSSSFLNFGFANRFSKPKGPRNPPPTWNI

Protein S100-A4 = Protein S100-A4 (Homo sapiens, UniProt P26447); assay: S100A4-myosin IIA binding inhibitor potency, dose response, biochemical, fluorescence polarization, cherry-picked hits (AID 687001); format: functional
Chain of Protein S100-A4 (P26447 whole entry): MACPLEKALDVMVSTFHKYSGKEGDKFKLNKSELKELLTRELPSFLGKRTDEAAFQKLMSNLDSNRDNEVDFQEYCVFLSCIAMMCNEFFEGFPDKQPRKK

H9c2 = assay: cells; format: functional, cell-based; settings: Rattus norvegicus, H9c2, Myocardium;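 note: confirmatory concentration-response retest of ultra-high-throughput screening hits for modulation of myocardial damage; cell death induced by hydrogen peroxide oxidative stress; compound pretreatment for 60 min then peroxide exposure for 2 h; potency is for protecting the cells against peroxide damage rather than for killing them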
[6] = target: Long-chain-fatty-acid--AMP ligase FadD28 (Mycobacterium tuberculosis, UniProt P9WQ59); assay: Fluorescence polarization aasay to screen for inhibitors that compete for the binding of FadD28 to a bisubstrate Measured in Biochemical System Using Plate Reader - 2147-01_Inhibitor_Dose_CherryPick_Activity.; format: functional, Mycobacterium tuberculosis H37Rv
Chain of Long-chain-fatty-acid--AMP ligase FadD28 (P9WQ59 whole entry): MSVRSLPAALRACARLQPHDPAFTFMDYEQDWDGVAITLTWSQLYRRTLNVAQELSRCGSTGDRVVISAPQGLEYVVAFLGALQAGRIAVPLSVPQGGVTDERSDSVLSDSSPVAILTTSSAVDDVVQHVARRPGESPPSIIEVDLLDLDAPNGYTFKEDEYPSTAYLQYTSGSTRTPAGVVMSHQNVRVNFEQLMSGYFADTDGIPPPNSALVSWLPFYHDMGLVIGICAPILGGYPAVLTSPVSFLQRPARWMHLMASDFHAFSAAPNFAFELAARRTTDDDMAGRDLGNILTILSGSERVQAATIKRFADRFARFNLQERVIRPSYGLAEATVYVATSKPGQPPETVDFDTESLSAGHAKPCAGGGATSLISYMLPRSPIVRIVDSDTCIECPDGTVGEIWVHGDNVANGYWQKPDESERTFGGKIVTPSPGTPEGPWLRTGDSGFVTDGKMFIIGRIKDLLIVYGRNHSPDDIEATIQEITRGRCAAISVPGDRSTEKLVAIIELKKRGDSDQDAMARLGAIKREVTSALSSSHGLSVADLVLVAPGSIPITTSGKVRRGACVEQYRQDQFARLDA

[7] = target: ADP-ribosylation factor GTPase-activating protein 1 (Rattus norvegicus, UniProt Q62848); assay: Fluorescence polarization-based biochemical high throughput dose response screening assay to identify inhibitors of ADP-ribosylation factor GTPase activating protein 1 (ARFGAP1).; format: functional
[8] = A Cell Based Secondary Assay To Explore Cytotoxicity of Compounds that Sensitize Mycobacterium Tuberculosis to Beta-Lactam Antibiotics.; format: functional
[9] = target: Fructose-bisphosphate aldolase (Mycobacterium tuberculosis, UniProt P9WQA3); assay: Fluorescence-based biochemical high throughput dose response assay for inhibitors of the fructose-bisphosphate aldolase (FBA) of M. tuberculosis.; format: functional
Chain of Fructose-bisphosphate aldolase (P9WQA3 whole entry, the tested form may be a part): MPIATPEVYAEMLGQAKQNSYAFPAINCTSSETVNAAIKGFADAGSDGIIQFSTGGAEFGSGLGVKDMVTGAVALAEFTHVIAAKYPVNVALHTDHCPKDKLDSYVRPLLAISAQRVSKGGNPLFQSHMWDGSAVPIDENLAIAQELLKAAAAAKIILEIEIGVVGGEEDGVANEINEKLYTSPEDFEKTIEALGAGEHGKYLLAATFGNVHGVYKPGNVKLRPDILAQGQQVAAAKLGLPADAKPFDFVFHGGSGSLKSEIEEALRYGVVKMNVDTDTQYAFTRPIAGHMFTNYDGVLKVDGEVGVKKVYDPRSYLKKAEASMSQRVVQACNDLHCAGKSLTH

[10] = target: Arf-GAP with SH3 domain, ANK repeat and PH domain-containing protein 1 (Homo sapiens, UniProt Q9ULH1); format: functional;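 note: biochemical fluorescence polarization dose–response screen measuring inhibition of ASAP1; ASAP1 GAP domain stimulating GTP hydrolysis by truncated human ARF1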
Chain of Arf-GAP with SH3 domain, ANK repeat and PH domain-containing protein 1 (Q9ULH1 whole entry, the tested form may be a part): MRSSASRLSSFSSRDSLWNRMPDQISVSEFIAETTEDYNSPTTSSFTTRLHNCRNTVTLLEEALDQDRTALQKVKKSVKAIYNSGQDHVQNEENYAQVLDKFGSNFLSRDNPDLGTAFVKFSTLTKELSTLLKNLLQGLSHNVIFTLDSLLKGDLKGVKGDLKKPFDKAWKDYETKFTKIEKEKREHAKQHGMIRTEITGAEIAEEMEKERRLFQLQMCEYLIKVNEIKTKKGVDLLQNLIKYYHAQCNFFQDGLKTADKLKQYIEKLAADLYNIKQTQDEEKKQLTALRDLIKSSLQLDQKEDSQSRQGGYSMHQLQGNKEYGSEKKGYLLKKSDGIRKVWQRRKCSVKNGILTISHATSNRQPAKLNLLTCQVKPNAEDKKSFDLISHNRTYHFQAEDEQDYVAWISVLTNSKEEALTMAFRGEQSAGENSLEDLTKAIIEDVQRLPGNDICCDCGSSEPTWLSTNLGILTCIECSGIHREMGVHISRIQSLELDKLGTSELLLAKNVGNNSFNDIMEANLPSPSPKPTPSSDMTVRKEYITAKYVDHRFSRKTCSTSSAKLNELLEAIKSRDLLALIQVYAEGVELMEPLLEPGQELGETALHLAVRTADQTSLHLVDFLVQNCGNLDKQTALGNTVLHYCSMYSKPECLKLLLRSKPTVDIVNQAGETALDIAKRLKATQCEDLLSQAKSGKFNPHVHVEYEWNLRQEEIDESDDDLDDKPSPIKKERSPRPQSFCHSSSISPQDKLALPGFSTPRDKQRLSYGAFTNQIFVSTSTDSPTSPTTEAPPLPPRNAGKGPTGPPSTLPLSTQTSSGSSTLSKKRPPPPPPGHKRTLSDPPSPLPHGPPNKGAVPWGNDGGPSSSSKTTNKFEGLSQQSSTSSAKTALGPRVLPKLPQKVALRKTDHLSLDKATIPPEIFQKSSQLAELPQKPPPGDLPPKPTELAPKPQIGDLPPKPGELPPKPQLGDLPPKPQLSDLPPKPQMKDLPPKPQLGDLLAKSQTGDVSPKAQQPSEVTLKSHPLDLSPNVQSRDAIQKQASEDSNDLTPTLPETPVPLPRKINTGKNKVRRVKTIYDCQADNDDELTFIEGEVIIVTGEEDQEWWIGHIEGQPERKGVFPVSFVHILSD

Beta-galactosidase = Beta-galactosidase (Escherichia coli, UniProt Q8VNN2); assay: Dose response counterscreen for EBI2 assay utilizing the enzyme, b-galactosidase.; format: functional
Chain of Beta-galactosidase (Q8VNN2 whole entry): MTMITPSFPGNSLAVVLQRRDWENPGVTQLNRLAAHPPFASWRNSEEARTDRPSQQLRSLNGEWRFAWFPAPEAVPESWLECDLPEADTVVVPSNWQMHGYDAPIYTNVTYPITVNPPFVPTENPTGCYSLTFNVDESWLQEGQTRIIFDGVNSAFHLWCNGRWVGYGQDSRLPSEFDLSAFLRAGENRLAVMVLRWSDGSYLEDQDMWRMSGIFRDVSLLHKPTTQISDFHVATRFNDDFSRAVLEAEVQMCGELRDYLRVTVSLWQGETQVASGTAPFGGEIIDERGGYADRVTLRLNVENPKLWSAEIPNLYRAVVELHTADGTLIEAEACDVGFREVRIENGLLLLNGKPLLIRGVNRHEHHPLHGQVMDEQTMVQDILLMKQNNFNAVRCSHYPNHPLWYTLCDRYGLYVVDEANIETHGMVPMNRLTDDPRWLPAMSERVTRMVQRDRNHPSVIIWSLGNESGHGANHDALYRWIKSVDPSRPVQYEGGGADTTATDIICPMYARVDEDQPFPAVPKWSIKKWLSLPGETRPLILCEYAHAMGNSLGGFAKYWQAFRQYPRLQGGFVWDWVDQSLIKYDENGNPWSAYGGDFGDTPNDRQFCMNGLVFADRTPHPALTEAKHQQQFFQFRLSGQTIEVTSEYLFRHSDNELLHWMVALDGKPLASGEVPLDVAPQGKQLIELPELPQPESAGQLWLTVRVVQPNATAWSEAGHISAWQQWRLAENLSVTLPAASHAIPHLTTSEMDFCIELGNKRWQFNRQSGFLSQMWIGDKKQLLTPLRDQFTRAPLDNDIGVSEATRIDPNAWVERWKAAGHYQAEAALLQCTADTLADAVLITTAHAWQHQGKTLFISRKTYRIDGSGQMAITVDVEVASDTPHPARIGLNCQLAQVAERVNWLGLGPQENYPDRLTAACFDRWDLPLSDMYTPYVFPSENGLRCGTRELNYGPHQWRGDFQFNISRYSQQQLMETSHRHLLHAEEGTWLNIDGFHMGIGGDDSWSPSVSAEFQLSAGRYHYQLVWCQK

[11] = target: T3, Corticotropin-releasing factor receptor 2/Corticotropin-releasing factor-binding protein (Homo sapiens, UniProt P24387+Q13324); assay: activators of CRF receptor 2 with binding protein – uHTS hits, confirmation (AID 602473); format: functional; settings: read-out: EC50_Mean
T3 sequence (Q13324 whole entry): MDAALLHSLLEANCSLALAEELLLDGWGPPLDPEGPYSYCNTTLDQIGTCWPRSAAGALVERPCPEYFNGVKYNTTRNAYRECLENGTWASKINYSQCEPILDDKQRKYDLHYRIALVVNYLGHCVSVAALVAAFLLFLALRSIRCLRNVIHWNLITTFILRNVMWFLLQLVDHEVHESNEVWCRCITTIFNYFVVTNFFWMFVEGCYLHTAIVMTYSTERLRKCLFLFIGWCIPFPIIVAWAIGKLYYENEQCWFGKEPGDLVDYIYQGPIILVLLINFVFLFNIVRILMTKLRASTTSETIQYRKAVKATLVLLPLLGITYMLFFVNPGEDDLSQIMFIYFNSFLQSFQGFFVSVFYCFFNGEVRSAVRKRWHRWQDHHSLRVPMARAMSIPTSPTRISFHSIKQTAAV
T3 sequence (P24387 whole entry): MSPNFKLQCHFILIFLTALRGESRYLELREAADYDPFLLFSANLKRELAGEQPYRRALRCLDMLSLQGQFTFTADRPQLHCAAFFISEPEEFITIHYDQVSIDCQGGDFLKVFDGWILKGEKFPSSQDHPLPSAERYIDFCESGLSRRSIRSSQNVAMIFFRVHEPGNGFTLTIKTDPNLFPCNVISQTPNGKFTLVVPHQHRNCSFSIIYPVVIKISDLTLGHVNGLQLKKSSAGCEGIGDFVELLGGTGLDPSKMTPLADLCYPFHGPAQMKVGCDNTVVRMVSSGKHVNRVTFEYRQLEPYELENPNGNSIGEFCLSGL

[12] = target: T4, Heat shock factor protein 1 (Mus musculus, UniProt P38532); assay: HSF1 potentiators in luciferase reporter cells, confirmation, cell-based, NIH3T3, luminescence, dose retest (AID 435004); format: functional;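 note: stress induced by proteasome inhibitor MG132 added 30 min after compound; luciferase reporter driven by HSF1 response element in NIH3T3 cells; actives raise luminescence as potentiators of the MG132 stress response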
T4 sequence (P38532 whole entry): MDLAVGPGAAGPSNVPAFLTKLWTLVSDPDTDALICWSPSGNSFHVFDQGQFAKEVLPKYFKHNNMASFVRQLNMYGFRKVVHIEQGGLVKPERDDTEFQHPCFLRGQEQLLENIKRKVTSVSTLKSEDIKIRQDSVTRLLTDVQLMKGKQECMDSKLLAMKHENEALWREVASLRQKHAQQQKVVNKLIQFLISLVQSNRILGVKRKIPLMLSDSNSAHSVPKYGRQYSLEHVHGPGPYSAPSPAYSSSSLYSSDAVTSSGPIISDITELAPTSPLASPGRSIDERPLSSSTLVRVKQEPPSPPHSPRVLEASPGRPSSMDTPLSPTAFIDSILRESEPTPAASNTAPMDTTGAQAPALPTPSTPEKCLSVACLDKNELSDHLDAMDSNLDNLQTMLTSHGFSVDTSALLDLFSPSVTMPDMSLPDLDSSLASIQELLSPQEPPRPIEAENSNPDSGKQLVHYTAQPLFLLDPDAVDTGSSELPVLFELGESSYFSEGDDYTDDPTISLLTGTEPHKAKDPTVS

HepG2 = assay: HepG2 Cytotoxicity Assay Measured in Cell-Based System Using Plate Reader - 7071-02_Inhibitor_Dose_CherryPick_Activity.; format: functional; settings: Homo sapiens
HeLa = assay: HeLa cell cytotoxicity, dose response, cytotoxicity control, ATP luminescence, cherry-pick samples (AID 687004); format: functional, cell-based; settings: Homo sapiens
[13] = target: T5, DNA repair protein RAD52 homolog (Homo sapiens, UniProt P43351); format: functional, biochemical
T5 sequence (P43351 whole entry): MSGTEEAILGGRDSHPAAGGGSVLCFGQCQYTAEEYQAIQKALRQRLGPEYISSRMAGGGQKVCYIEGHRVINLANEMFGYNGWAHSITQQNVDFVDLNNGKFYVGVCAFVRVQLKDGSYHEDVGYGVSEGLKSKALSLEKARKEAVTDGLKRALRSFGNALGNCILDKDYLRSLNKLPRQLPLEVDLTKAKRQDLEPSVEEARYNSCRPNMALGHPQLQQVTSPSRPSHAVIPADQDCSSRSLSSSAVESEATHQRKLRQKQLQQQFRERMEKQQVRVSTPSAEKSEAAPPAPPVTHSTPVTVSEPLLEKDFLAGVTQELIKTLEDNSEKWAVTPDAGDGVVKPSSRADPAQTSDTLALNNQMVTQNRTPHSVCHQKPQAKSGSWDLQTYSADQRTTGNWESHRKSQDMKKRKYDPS

[14] = MDA-MB-231 cell growth inhibition, dose response, cytotoxicity control for RAD54 inhibitor project, CellTiter-Glo luminescence, cherry-pick (AID 651692); format: functional, cell-based
[15] = target: T6, DNA repair and recombination protein RAD54-like (Homo sapiens, UniProt Q92698); assay: inhibitors of human RAD54 branch migration, confirmation, biochemical, fluorescence, cherry-picked samples, dose series (AID 651657); format: functional
T6 sequence (Q92698 whole entry): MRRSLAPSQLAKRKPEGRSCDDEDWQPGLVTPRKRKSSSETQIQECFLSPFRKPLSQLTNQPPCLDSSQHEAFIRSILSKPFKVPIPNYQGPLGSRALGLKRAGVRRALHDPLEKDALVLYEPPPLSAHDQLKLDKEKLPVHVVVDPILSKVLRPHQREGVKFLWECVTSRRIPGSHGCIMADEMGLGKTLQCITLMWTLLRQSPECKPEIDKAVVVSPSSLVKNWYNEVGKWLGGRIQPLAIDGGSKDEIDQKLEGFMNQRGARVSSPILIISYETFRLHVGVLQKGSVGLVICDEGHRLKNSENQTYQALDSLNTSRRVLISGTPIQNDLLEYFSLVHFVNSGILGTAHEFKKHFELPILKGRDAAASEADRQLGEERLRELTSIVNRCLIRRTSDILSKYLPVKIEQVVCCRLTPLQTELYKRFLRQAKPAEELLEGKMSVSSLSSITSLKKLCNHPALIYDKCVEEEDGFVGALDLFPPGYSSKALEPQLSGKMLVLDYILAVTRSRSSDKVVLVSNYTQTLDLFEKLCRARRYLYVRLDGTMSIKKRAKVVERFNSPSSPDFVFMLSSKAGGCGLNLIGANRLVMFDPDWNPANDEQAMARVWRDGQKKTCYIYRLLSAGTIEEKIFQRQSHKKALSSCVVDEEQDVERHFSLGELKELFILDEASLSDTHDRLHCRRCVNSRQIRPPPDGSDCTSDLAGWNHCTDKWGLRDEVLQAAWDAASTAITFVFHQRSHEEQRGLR

Nonstructural protein 1 = Nonstructural protein 1 (Influenza A virus, UniProt Q194T2); format: functional, Influenza A virus (A/California/07/2009(H1N1))
Chain of Nonstructural protein 1 (Q194T2 whole entry): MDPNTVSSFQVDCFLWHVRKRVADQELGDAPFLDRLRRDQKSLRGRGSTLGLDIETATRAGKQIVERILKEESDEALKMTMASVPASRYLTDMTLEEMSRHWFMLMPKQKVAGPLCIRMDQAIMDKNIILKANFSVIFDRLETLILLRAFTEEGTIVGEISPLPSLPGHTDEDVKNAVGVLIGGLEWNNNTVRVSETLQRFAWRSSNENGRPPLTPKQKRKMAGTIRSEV

[16] = target: T7, Microphthalmia-associated transcription factor (Homo sapiens, UniProt O75030); assay: TRPM1 promoter luciferase signal decrease, dose response, MITF inhibitor project, cell-based, SK-MEL-5, cherry-picked, set 3 (AID 493073); format: functional
T7 sequence (O75030 whole entry): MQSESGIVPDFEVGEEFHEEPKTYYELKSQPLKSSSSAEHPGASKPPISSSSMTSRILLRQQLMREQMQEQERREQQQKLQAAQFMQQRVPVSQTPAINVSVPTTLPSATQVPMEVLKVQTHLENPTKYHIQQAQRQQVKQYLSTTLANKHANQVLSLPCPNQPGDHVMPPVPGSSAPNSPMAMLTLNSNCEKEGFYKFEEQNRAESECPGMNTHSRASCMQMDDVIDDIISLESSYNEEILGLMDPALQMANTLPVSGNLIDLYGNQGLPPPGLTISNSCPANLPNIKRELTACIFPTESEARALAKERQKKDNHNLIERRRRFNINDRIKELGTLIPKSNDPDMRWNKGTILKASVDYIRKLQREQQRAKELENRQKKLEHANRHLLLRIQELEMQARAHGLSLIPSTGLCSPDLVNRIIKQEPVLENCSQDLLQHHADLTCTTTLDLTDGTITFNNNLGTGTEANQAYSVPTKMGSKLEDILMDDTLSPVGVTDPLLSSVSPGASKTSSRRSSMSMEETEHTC

Chain of Tyrosine-protein phosphatase non-receptor type 5 (P54829 whole entry): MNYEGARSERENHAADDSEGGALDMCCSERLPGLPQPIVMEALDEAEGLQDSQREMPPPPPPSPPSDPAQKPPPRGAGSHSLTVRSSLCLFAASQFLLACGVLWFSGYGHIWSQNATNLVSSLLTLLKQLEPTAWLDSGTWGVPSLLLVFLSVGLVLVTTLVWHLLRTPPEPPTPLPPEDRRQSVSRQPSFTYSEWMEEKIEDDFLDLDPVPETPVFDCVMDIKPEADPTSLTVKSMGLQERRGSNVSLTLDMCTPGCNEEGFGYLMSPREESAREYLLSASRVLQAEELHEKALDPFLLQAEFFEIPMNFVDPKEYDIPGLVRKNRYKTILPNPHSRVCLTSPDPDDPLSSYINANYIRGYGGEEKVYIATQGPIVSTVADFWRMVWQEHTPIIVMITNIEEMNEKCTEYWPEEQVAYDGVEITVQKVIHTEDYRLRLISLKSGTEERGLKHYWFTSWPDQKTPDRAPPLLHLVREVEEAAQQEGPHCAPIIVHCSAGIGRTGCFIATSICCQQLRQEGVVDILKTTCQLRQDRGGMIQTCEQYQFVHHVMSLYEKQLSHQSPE

CCOC(=O)CN1C(=O)S/C(=C/c2ccc(OCc3ccc(C(=O)O)cc3)cc2)C1=O
IC50 [1]: 25.4 µM (inactive)
IC50 [2]: 4.27 µM (active)
IC50 [3]: 3.24 µM (active)
IC50 [4]: 3.74 µM (active)
IC50 [5]: 50.6 µM (inactive)

O=C1C=C(N2CCOCC2)c2cccc3cccc1c23
AC50 (Protein S100-A4): 4.83 µM (active)
IC50 (H9c2): 18.2 µM (active)

Cc1ccc(CSCCNC(=O)c2ccc(N(C)S(=O)(=O)c3ccccc3)cc2)cc1
AC50 [6]: 7.13 µM (active)

Cc1cccc(NC(=O)Cn2cnc3c(oc4ccccc43)c2=O)c1C
IC50 [7]: 28.7 µM (inactive)
CC50 [8]: > 40 µM (active)

N#Cc1c(-c2ccco2)cc(C2CC2)nc1N
IC50 [9]: 1.43 µM (active)

COc1cc(/C=C2/SC(N)=NC2=O)ccc1Oc1ccc([N+](=O)[O-])cc1[N+](=O)[O-]
IC50 [10]: 54.9 µM (inactive)

CC1(C)CC(=O)C(=CNc2cc(C(=O)c3ccccc3)ccc2/N=C/C2=C(O)CC(C)(C)CC2=O)C(=O)C1
IC50 (Beta-galactosidase): 7.97 µM (active)
EC50 [11]: > 53 µM (inactive)
EC50 [12]: 56.1 µM (active)

CN(C[C@H]1N[C@@H](CO)[C@H]1c1ccc(-c2cccc(F)c2)cc1)S(C)(=O)=O
AC50 (HepG2): 23.7 µM (active)
AC50 (HeLa): 20.3 µM (active)

CCN1CCCC1CNC(=O)c1ccc2c(c1)NC(=O)/C(=C\c1ccc(OC)c(OC)c1)S2 (configuration not stated)
AC50 [13]: 3.24 µM (active)
AC50 [14]: 36.4 µM (active)
AC50 [15]: 12.6 µM (active)
IC50 (Nonstructural protein 1): 81.9 µM (active)
AC50 [16]: 13.8 µM (active)
